Assay results as given in article PMC8580996, “2-Oxoglutarate derivatives can selectively enhance or inhibit the activity of human oxygenases” (Nature Communications, 2021).
Where “and” joins values, the source holds several entries; their conditions need not be identical. Equal values may be shown once. Entries after “also recorded” stand apart in the source; their conditions may differ.

What was measured:
AspH [1] = target: T1, AspH (Homo sapiens, UniProt Q12797); settings: 0.05 μM AspH, 1.0 μM hFX-CP101-119, 3.0 μM 2OG, ref 21 (supplementary ref 1); cited from earlier work
T1 construct: the tetratricopeptide repeat domain (His6-AspH315-758), was produced and purified as previously reported; made in house
T1 sequence (Q12797 315-758): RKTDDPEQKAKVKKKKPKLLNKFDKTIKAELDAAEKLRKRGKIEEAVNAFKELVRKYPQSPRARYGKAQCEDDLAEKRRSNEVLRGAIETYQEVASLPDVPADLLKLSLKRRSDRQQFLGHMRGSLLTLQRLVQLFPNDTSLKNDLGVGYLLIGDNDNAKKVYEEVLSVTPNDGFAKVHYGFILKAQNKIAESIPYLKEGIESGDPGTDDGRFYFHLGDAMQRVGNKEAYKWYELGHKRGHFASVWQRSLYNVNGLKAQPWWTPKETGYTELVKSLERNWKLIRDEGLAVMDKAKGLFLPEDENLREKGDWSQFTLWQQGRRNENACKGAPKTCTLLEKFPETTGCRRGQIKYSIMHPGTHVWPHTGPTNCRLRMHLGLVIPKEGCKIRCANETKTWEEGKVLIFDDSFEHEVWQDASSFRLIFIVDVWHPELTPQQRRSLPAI

FIH = FIH (Homo sapiens, UniProt Q9NWT6); test: FIH steady-state kinetic parameters (SPE-MS, initial hydroxylation rates); type: biochemical; set-up: slope of initial reaction rate: unit not given here
Experimental: Final 2OG/2OG derivative concentrations are given in Supplementary Figs. 5 and 6. Reactions were monitored with a rate of ~1 sample/40 s using the same SPE-MS configuration as described above. Data were analyzed as described above and the slopes of the initial reaction rates (Supplementary Figs. 5 and 6) fitted to a Michaelis–Menten plot using non-linear regression (GraphPad Prism 5). […]
determine kinetic parameters for 2OG derivatives (continues on the following page). Maximum velocities (vapp ) and Michaelis constants (Kapp) of FIH were determined in independent triplicates for 2OG and the 2OG […]
SPE-MS as described in the Methods section. […]
acid (LAA), and 20 μM ammonium iron(II) sulfate hexahydrate (FAS, (NH4)2Fe(SO4)2·6H2O) in buffer (50 mM […]
Tris, 50 mM NaCl, pH 7.5, 20° C). […]
data are provided as a Source Data file. […]
concentrations of 2OG; (b) hydroxylation rates used to determine kinetic parameters of FIH for 2OG; (c) time […]
3-methyl-2OG (1); (d) hydroxylation rates used to determine kinetic parameters of FIH for 1; (e) time course of […]
2OG (12); (f) hydroxylation rates used to determine kinetic parameters of FIH for 12; (g) time course of the FIH- […]
(h) hydroxylation rates used to determine kinetic parameters of FIH for 14; (i) time course of the FIH-catalyzed […]
(carboxycarbonyl)cyclopentane-1-carboxylic acid (22); (j) hydroxylation rates used to determine kinetic parameters of FIH for 22.
Supplementary Figure 6. Hydroxylation rates of FIH-catalyzed CA1-20 hydroxylations used to determine kinetic parameters for 2OG derivatives (continues on the following page). Maximum velocities (vapp ) and […]
ammonium iron(II) sulfate hexahydrate (FAS, (NH4)2Fe(SO4)2·6H2O) in buffer (50 mM Tris, 50 mM NaCl, pH […]
Source data are provided as a Source […]
of 2OG; (b) hydroxylation rates used to determine kinetic parameters of FIH for 2OG; (c) time course of the FIH-catalyzed hydroxylation reaction of the CA1-20 peptide for the shown concentrations of 3-methyl-2OG (1); (d) hydroxylation rates used to determine kinetic parameters of FIH for 1; (e) time course of the FIH -catalyzed hydroxylation reaction of the CA 1-20 peptide for the shown concentrations of 4 -methyl-2OG (12); (f) hydroxylation rates used to determine kinetic parameters of FIH for 12; (g) time course of the FIH-catalyzed hydroxylation reaction of the CA1-20 peptide for the shown concentrations of 4-ethyl-2OG (14); (h) hydroxylation rates used to determine kinetic parameters of FIH for 14; (i) time course of the FIH-catalyzed hydroxylation reaction of the CA1-20 peptide for the shown concentrations of 3-(carboxycarbonyl)cyclopentane-1-carboxylic acid (22); (j) hydroxylation rates used to determine kinetic parameters of FIH for 22.

AspH [2] = target: T1, AspH; set-up: method as in PMID 34163896; settings: hFX-CP101–119 substrate, 330 μM 2OG or 2OG derivative, t = 15 min; cited from earlier work

Chain of FIH (Q9NWT6 whole entry): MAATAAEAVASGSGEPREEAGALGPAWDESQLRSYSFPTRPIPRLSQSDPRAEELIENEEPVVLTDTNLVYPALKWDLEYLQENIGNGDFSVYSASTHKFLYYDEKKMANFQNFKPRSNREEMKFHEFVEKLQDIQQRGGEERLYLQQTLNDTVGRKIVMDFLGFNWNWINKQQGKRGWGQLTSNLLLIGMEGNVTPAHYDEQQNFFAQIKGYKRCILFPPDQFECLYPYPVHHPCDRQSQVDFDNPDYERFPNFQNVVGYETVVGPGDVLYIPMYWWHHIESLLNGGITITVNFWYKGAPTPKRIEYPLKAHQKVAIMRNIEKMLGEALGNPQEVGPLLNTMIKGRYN

SPE-MS determined concentration of hydroxylated HIF-1a peptide (FIH; 0.25 uM compound 12, time 0.699833 min): 0.04437 µM and 0.04741 µM and 0.03831 µM
SPE-MS determined concentration of hydroxylated HIF-1a peptide (FIH; 0.25 uM compound 12, time 2.098 min): 0.08198 µM and 0.1152 µM and 0.1017 µM
SPE-MS determined concentration of hydroxylated HIF-1a peptide (FIH; 0.5 uM compound 12, time 0.699833 min): 0.06422 µM and 0.08062 µM and 0.07548 µM
SPE-MS determined concentration of hydroxylated HIF-1a peptide (FIH; 0.5 uM compound 12, time 2.098 min): 0.1727 µM and 0.153 µM and 0.1556 µM
SPE-MS determined concentration of hydroxylated HIF-1a peptide (FIH; 0.5 uM compound 12, time 2.797 min): 0.211 µM
SPE-MS determined concentration of hydroxylated HIF-1a peptide (FIH; 1 uM compound 12, time 0.699833 min): 0.1124 µM and 0.1213 µM and 0.1053 µM
SPE-MS determined concentration of hydroxylated HIF-1a peptide (FIH; 1 uM compound 12, time 2.098 min): 0.2072 µM and 0.2617 µM and 0.2659 µM
SPE-MS determined concentration of hydroxylated HIF-1a peptide (FIH; 1 uM compound 12, time 2.797 min): 0.2567 µM and 0.3212 µM and 0.319 µM
SPE-MS determined concentration of hydroxylated HIF-1a peptide (FIH; 2 uM compound 12, time 0.699833 min): 0.1658 µM and 0.1554 µM and 0.162 µM
SPE-MS determined concentration of hydroxylated HIF-1a peptide (FIH; 2 uM compound 12, time 2.098 min): 0.3451 µM and 0.3558 µM and 0.3835 µM
SPE-MS determined concentration of hydroxylated HIF-1a peptide (FIH; 2 uM compound 12, time 2.797 min): 0.4027 µM and 0.4334 µM and 0.458 µM
SPE-MS determined concentration of hydroxylated HIF-1a peptide (FIH; 4 uM compound 12, time 0.699833 min): 0.2736 µM and 0.2242 µM and 0.2062 µM
SPE-MS determined concentration of hydroxylated HIF-1a peptide (FIH; 4 uM compound 12, time 2.098 min): 0.6118 µM and 0.4979 µM and 0.4845 µM
SPE-MS determined concentration of hydroxylated HIF-1a peptide (FIH; 4 uM compound 12, time 2.797 min): 0.7774 µM and 0.6268 µM and 0.6241 µM
SPE-MS determined concentration of hydroxylated HIF-1a peptide (FIH; 8 uM compound 12, time 0 min): 0.06164 µM and 0.06905 µM and 0.05066 µM
SPE-MS determined concentration of hydroxylated HIF-1a peptide (FIH; 8 uM compound 12, time 0.699833 min): 0.2593 µM and 0.272 µM and 0.2286 µM
SPE-MS determined concentration of hydroxylated HIF-1a peptide (FIH; 8 uM compound 12, time 2.098 min): 0.6058 µM and 0.6256 µM and 0.5278 µM
SPE-MS determined concentration of hydroxylated HIF-1a peptide (FIH; 8 uM compound 12, time 2.797 min): 0.7712 µM and 0.7937 µM and 0.6846 µM
SPE-MS determined concentration of hydroxylated HIF-1a peptide (FIH; 16 uM compound 12, time 0 min): 0.09407 µM and 0.05485 µM and 0.06025 µM
SPE-MS determined concentration of hydroxylated HIF-1a peptide (FIH; 16 uM compound 12, time 0.699833 min): 0.2985 µM and 0.2562 µM and 0.2621 µM
SPE-MS determined concentration of hydroxylated HIF-1a peptide (FIH; 16 uM compound 12, time 2.098 min): 0.6815 µM and 0.5982 µM and 0.6264 µM
SPE-MS determined concentration of hydroxylated HIF-1a peptide (FIH; 16 uM compound 12, time 2.797 min): 0.848 µM and 0.7909 µM and 0.7891 µM
SPE-MS determined concentration of hydroxylated HIF-1a peptide (FIH; 32 uM compound 12, time 0 min): 0.0933 µM and 0.07278 µM and 0.06334 µM
SPE-MS determined concentration of hydroxylated HIF-1a peptide (FIH; 32 uM compound 12, time 0.699833 min): 0.2746 µM and 0.2712 µM and 0.2731 µM
SPE-MS determined concentration of hydroxylated HIF-1a peptide (FIH; 32 uM compound 12, time 2.098 min): 0.594 µM and 0.6472 µM and 0.6437 µM
SPE-MS determined concentration of hydroxylated HIF-1a peptide (FIH; 32 uM compound 12, time 2.797 min): 0.7489 µM and 0.8116 µM and 0.8049 µM
slope of initial reaction rate (FIH; CA1-20, 0.25 μM 12): 0.003176 and 0.003306
slope of initial reaction rate (FIH; CA1-20, 0.5 μM 12): 0.006776 and 0.007676 and 0.008102
slope of initial reaction rate (FIH; CA1-20, 1 μM 12): 0.01054 and 0.007937 and 0.01116
slope of initial reaction rate (FIH; CA1-20, 2 μM 12): 0.01217 and 0.0142 and 0.01263
slope of initial reaction rate (FIH; CA1-20, 4 μM 12): 0.01597 and 0.01096 and 0.0129
slope of initial reaction rate (FIH; CA1-20, 8 μM 12): 0.01648 and 0.01721 and 0.01973
slope of initial reaction rate (FIH; HIF-1a788-822, 0.25 μM 12): 0.000487 and 0.000839 and 0.000746
slope of initial reaction rate (FIH; HIF-1a788-822, 0.5 μM 12): 0.000918 and 0.001031 and 0.00127
slope of initial reaction rate (FIH; HIF-1a788-822, 1 μM 12): 0.001321 and 0.001828 and 0.001913
slope of initial reaction rate (FIH; HIF-1a788-822, 2 μM 12): 0.00207 and 0.002424 and 0.002687
slope of initial reaction rate (FIH; HIF-1a788-822, 4 μM 12): 0.004223 and 0.003389 and 0.00353
slope of initial reaction rate (FIH; HIF-1a788-822, 8 μM 12): 0.004209 and 0.004298 and 0.003737
slope of initial reaction rate (FIH; HIF-1a788-822, 16 μM 12): 0.004508 and 0.004326 and 0.004345
slope of initial reaction rate (FIH; HIF-1a788-822, 32 μM 12): 0.003886 and 0.004421 and 0.004419
Structure (SMILES): CC(CC(=O)C(=O)O)C(=O)O (stereo not drawn) [compound 12, 4-methyl-2OG]
IC50 AspH (AspH [1]): inactive; also recorded: neither inhibits AspH nor FIH
AspH activity, %-substrate conversion (AspH [2]): ~10%
